The source of these data is article PMC9895995, “Laccase Immobilization on Copper-Magnetic Nanoparticles for Efficient Bisphenol Degradation” (Journal of Microbiology and Biotechnology, 2022).

The assay deals with T1, Rhus vernicifera laccase (free laccase).
T1 construct: gene urishiol oxidase
To be noted: free enzyme; 100 mM sodium citrate buffer, optimum pH (3.5), 25°C; ABTS 0.05-20.0 mM.

For `CCn1c(=NN=c2sc3cc(S(=O)(=O)O)ccc3n2CC)sc2cc(S(=O)(=O)O)ccc21` [ABTS, 2,2'-azino-bis (3-ethylbenzothiazoline-6-sulfonic acid)], the Km was determined as 1720 ± 380 µM.

One may read the Km as the concentration of substrate that gives half-maximal velocity.
